Test results: patent publication US5196427A, “3-aryl-4(3H) quinazolinone CCK antagonists and pharmaceutical formulations thereof” (Eli Lilly and Company, priority 1991, dated 1993)
Read-outs that look alike come from different tables or passages of the source.

Columns and labels:
Brain CCK receptor = target: T1, Brain CCK receptor (Mus musculus, UniProt P56481); assay: Brain CCK receptor binding (mouse brain membranes, 125I-CCK-8 sulfate); conditions: for IC50: mouse brain membranes, Mean ± SEM, n = 3, values without SEM n = 1, read-out: Brain IC50
T1 construct: from tissue; host or cells: forebrain membranes of male CF-1 mice
T1 sequence (P56481 1-453): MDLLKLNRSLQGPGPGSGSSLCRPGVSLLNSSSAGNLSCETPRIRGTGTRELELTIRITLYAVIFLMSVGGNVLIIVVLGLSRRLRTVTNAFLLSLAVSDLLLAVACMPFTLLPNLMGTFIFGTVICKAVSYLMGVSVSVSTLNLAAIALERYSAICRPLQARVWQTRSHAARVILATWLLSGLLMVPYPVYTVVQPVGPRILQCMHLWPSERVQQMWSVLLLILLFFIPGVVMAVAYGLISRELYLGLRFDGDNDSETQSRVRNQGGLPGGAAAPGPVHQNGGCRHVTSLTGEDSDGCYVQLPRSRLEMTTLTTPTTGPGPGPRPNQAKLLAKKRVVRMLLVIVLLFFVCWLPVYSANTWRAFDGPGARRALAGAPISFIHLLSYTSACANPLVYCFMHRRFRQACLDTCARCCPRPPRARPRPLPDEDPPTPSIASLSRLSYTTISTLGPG
Experimental: Brain CCK receptor binding was performed using mouse brain membranes according to the method of Chang and Lotti (Proc. Natl. Acad. Sci. 83: 4923-4926, 1986). Male CF-1 mice, 23-25 g were sacrificed by cervical dislocation, the forebrain removed and placed in ice cold 50 mM Tris buffer, pH 7.4. The tissue was homogenized in 100 volumes of the Tris buffer with a Brinkman Polytron or Tekmar Tissumizer and then centrifuged at 40,000 g for 10 min. Pellets were resuspended in Tris buffer, centrifuged as above and then resuspended in 100 volumes of assay buffer, pH 6.5 (20 mM N-2-hydroxyethyl-piperazine-N'-2-ethane sulfonic acid (HEPES), 1 mM ethylene glycol bis(2-aminoethyl ether-N,N,N',N'-tetraaceticacid) (EGTA), 5 mM MgCl2, 130 mM NaCl, and 0.25 mg/ml bacitracin). The binding assay consisted of 50 μL of compound (or buffer for total binding), 50 μL of ^125 I-CCK-8 sulfate (20 pM) (Amersham IM-159), 200 μL of assay buffer and 200 μL of homogenate (80-120 μg protein). The samples were incubated at room temperature (25°) for 2 hours, and they were then filtered through GF/B glass fiber filters (soaked in wash buffer for 2 hours before use) using a 48 well Brandel cell harvester designed for receptor binding. The filters were washed twice with 3 ml of 50 mM Tris buffer, pH 7.4, containing 0.01% BSA and then counted for radioactivity in plastic tubes with a Micromedic 10/600 automatic gamma counter.
Compounds were dissolved in dimethyl sulfoxide (DMSO) at a concentration of 10 mM and then further diluted with assay buffer. […] IC-50 values of displacement curves were determined using 7 concentrations of compound and were calculated using the ALLFIT computer program of DeLean, Munson and Rodbard (Am. J. Physiol. 235: E97-E102, 1978). Non-specific binding was determined as the displacement of the radioligand by 100 nM CCK-8 sulfate.

[1] = target: T2, peripheral type CCK receptors in rat pancreas (Rattus norvegicus, UniProt P30551); assay: Binding to peripheral type CCK receptors in rat pancreas (3H-L364,718); conditions: read-out: Pancreas % inhibition in binding assay
T2 construct: from tissue; host or cells: pancreas membranes of male Sprague-Dawley rats
T2 sequence (P30551 1-444): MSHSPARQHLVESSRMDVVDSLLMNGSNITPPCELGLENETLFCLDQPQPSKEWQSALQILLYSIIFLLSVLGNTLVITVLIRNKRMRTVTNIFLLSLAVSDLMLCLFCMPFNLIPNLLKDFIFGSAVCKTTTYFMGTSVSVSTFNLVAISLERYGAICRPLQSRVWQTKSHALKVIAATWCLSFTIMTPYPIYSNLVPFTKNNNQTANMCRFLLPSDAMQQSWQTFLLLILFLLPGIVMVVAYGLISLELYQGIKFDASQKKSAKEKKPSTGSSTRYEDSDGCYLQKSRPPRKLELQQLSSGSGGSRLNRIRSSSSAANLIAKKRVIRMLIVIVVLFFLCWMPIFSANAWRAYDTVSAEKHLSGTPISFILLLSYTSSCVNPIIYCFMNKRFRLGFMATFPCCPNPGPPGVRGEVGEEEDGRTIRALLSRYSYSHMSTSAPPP
Experimental: Binding to peripheral type CCK receptors in rat pancreas was done according to the method of Chang et al. (Mol. Pharmacol. 30: 212-217, 1986) using ^3 H-L364, 718. Pancreas was obtained from male & Sprague-Dawley rats, 150-200 g, after decapitation, and dissected free from adipose and connective tissue. The tissue was homogenized in 30 volumes of 50 mM Tris buffer, pH 7.4 and centrifuged at 40,000 g for 10 min. The tissue pellet was washed by resuspension and centrifugation as described above. The final pellet was suspended in 500 volumes of assay buffer (50 mM Tris buffer, pH 7.4, 5 mM MgC2, 0.14 mg/ml bacitracin, and 5 mM dithiothreitol) to give a protein concentration of 30-60 μg/200 μl. Reagent volumes for the assay were the same as those used for CCK binding to brain membranes. […] The samples were incubated 1 hour at room temperature and then filtered as described for the CCK-brain receptor. Scintillation cocktail was added to the filters which were counted for radioactivity using a Micromedic Taurus automatic liquid scintillation counter.
Compound samples were prepared and IC-50 values were determined as described for the CCK-brain experiments. Non-specific binding was that amount left bound to the filters after adding 100 nM L-364,718.

Gastrin receptor = target: T3, Gastrin receptor (Cavia porcellus, UniProt H0VZC5); assay: Gastrin binding to guinea pig stomach mucosal membranes (125I-gastrin I); conditions: Mean ± SEM, n = 3
T3 construct: from tissue; host or cells: stomach fundus mucosal membranes of male Hartley guinea pigs
T3 sequence (H0VZC5 1-426): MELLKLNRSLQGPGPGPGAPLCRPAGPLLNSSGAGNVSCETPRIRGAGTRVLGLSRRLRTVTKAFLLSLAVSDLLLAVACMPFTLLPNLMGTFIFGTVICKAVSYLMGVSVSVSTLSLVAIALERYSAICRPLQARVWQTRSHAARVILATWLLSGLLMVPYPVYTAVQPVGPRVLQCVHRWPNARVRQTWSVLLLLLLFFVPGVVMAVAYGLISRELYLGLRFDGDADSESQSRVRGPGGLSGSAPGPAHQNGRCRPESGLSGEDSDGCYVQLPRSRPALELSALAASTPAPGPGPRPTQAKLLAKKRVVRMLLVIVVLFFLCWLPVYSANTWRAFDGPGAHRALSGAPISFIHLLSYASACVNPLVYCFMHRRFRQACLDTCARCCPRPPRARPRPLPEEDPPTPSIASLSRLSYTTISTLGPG
Experimental: The method used for gastrin binding to guinea pig stomach mucosal membranes was similar to that described by Takeuchi, Speir and Johnson (Am. J. Physiol. 237(3): E284-E294, 1979). Guinea pig stomach […] was obtained from male Hartley guinea pigs, 300-350 g, and the mucosa was scraped off with a glass The mucosa was homogenized in 50 mM Tris buffer, pH 7.4, containing 1 mM phenylmethanesulfonyl fluoride using a Dounce glass homogenizer, and the suspension was centrifuged at 40,000 g for 10 min. The resulting pellet was resuspended and centrifuged once more, the final pellet was then suspended in 100 ml assay buffer per 1 guinea pig stomach to give a protein concentration of 200-300 μg/200 μl. The assay buffer consisted of 50 mM Tris buffer, pH 7.4, 5 mM MgC2, 0.14 mg/ml bacitracin, and 1 μg/ml each of leupeptin, chymostatin, aprotinin and pepstatin. Reagent volumes for the assay were the same as those used for CCK binding to brain membranes. The radioactive ligand was 20 pM ^125 I-gastrin I, from DuPont NEN (NEX-176). The samples were incubated 3 hours at room temperature and filtered and counted as described for CCK binding to brain membranes. Compound samples were prepared and IC-50 values were determined as described for the CCK-brain receptor binding. Non-specific binding was determined using 100 nM gastrin I (human synthetic from Sigma Chemical Co.).

## COc1cccc(-n2c(CCc3c[nH]c4ccccc34)nc3ccccc3c2=O)c1 [Example 17]
Brain CCK receptor
  IC50: 160 ± 30 nM
[1]
  inhibition at 10 µM: 16%

## COc1ccc(-n2c(CCc3c[nH]c4ccc(Br)cc34)nc3ccccc3c2=O)cc1 [Example 52]
Brain CCK receptor
  IC50: 31 ± 6 nM
[1]; rat pancreas, 10 μM
  inhibition at 10 µM: 0.3%

## CCc1cccc(-n2c(CCc3c[nH]c4ccc(Br)cc34)nc3ccccc3c2=O)c1 [Example 29]
Brain CCK receptor
  IC50: 46 ± 10 nM
[1]; rat pancreas, 10 μM
  inhibition at 10 µM: -4.5%
Gastrin receptor
  IC50: 1100 ± 200 nM

## CCc1cccc(-n2c(CCc3c[nH]c4ccccc34)nc3ccccc3c2=O)c1 [Example 28]
Brain CCK receptor
  IC50: 72 ± 1 nM
[1]
  inhibition at 10 µM: 2.6%

## CCc1cccc(-n2c(CCc3c[nH]c4ccc(OC)cc34)nc3ccccc3c2=O)c1 [Example 31]
Brain CCK receptor
  IC50: 22 nM
[1]; rat pancreas, 10 μM
  inhibition at 10 µM: 11%

## O=c1c2ccccc2nc(CCc2c[nH]c3ccccc23)n1-c1cccc(Cl)c1 [Example 13]
Brain CCK receptor
  IC50: 690 ± 160 nM
[1]
  inhibition at 10 µM: 17%

## O=c1c2ccccc2nc(CCCc2c[nH]c3ccccc23)n1-c1ccccc1 [Example 62]
Brain CCK receptor; read-out: Brain % inhibition in binding assay, mouse brain membranes, 10 μM
  inhibition at 10 µM: 20%
[1]; rat pancreas, 10 μM
  inhibition at 10 µM: 11%

## CCc1cccc(-n2c(CCc3c[nH]c4ccc(Cl)cc34)nc3ccccc3c2=O)c1 [Example 30]
Brain CCK receptor
  IC50: 30 nM
[1]; rat pancreas, 10 μM
  inhibition at 10 µM: -9.1%

## O=c1c2ccccc2nc(CCc2c[nH]c3ccc(Cl)cc23)n1-c1cccc(Br)c1 [Example 16]
Brain CCK receptor
  IC50: 190 nM
[1]; rat pancreas, 10 μM
  inhibition at 10 µM: 2%

## O=c1c2ccccc2nc(CCc2c[nH]c3ccccc23)n1-c1ccccc1 [Example 1, 2-[2-(3-indolyl)ethyl]-3-phenyl-4-(3H)quinazolinone]
Brain CCK receptor
  IC50: 670 ± 150 nM
[1]
  inhibition at 10 µM: 37%

## CCc1cccc(-n2c(CC(C)c3c[nH]c4ccc(Br)cc34)nc3ccccc3c2=O)c1 (stereo not drawn) [Example 64]
Brain CCK receptor
  IC50: 100 ± 10 nM
Gastrin receptor
  IC50: 1600 ± 100 nM

## O=c1c2ccccc2nc(CCc2c[nH]c3ccccc23)n1-c1cccc(Br)c1 [Example 15]
Brain CCK receptor
  IC50: 370 ± 30 nM
[1]; rat pancreas, 10 μM
  inhibition at 10 µM: -5.7%

## CCOc1cccc(-n2c(CCc3c[nH]c4ccc(Br)cc34)nc3ccccc3c2=O)c1 [Example 23]
Brain CCK receptor
  IC50: 34 ± 7 nM
[1]; rat pancreas, 10 μM
  inhibition at 10 µM: -14%

## CC(C)Oc1cccc(-n2c(CCc3c[nH]c4ccc(Br)cc34)nc3ccccc3c2=O)c1 [Example 4, 2-[2-(5-Bromoindol-3-yl)ethyl]-3-(3-isopropoxyphenyl)-4-quinazolinone]
[1]; rat pancreas, 10 μM
  inhibition at 10 µM: -1.4%

## COc1cccc(-n2c(CCc3c[nH]c4ccc(Br)cc34)nc3ccccc3c2=O)c1 [Example 20]
[1]; rat pancreas, 10 μM
  inhibition at 10 µM: 5.3%

## Cc1cccc(-n2c(CCc3c[nH]c4ccccc34)nc3ccccc3c2=O)c1 [Example 14]
Brain CCK receptor
  IC50: 150 ± 10 nM
[1]
  inhibition at 10 µM: 0.6%

## O=c1c2ccccc2nc(CCc2c[nH]c3ccccc23)n1-c1cccc(F)c1 [Example 12]
Brain CCK receptor
  IC50: 730 ± 170 nM
[1]
  inhibition at 10 µM: 11%
